According to patent publication US20250122242A1, “SELECTION SYSTEMS, PEPTIDES DETERMINED THEREWITH, AND METHODS OF USING SAME” (Wisconsin Alumni Research Foundation, priority 2023, published 2025):

Key:
[1] = molecular target: T1, Aβ42-T7n (UniProt P00573+P05067); settings: for Fold enrichment in negative vs. positive selection: percent reads negative vs. positive selection; for Percent total reads (negative selection) / Rank (negative selection): subsequent negative selection against Aβ42, high-throughput sequencing
T1 sequence (P05067+P00573 fused): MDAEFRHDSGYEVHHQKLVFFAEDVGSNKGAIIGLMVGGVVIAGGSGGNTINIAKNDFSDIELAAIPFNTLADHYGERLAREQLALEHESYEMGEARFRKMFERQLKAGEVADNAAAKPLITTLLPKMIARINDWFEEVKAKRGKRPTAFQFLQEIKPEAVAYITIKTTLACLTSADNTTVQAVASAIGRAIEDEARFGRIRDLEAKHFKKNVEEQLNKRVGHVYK
Text: To create a negative selection, we placed gIII-neg, a dominant-negative form of gIII,^44 under PT7 in our selection circuit. Inhibition of a non-target APP (ex. Aβ42) triggers pIII-neg expression and poisons phage proliferation. A second plasmid produces small amounts of pIII from the phage shock promoter (FIG. 16A). All SPs infecting cells encoding this negative selection receive sufficient pIII to propagate. However, SP that carry a promiscuous or false positive cyclic peptide will also produce pIII-neg and generate non-infectious progeny (FIGS. 16B and 16C). We subjected the hIAPP round 5 phage population to four rounds of negative selection, diluting the phage by 100-fold each round (FIG. 5B).
(§1) Single colonies of host cells transformed with the appropriate selection plasmids were used to make overnight cultures in 2×YT with maintenance antibiotics. The overnight culture was diluted (1:100) into 4-5 mL DRM with maintenance antibiotics and incubated at 37° C. with shaking until the OD600 of the culture reached ˜0.5, upon which the expanded phage library was added at a titer of 1×10^6 pfu/mL. The culture was incubated at 37° C. with shaking overnight (13-18 h). The next day, the culture was centrifuged at 8,000 rcf for 2 min to obtain the supernatant containing phage. The collected phage was diluted into fresh host cell cultures (10 to 1,000-fold) for the next round of selection, while the rest was stored at 4° C. for downstream analysis. This process was repeated until a significant increase in phage propagation was observed compared with the parent library. Both positive and negative selection rounds were performed using this procedure.
(§2) Sample preparation. Phage stocks collected from the final rounds of library selection were first amplified using LY0145 and LY0146. The PCR product was purified, and adapters added using LY0147 and LY0148. The resulting PCR product was purified and barcoded through a final PCR using index primers to add unique indices for shared Illumina NovaSeq sequencing. The final PCR product was purified, and the concentration measured by Nanodrop. Further sample quality control was performed by the University of Wisconsin-Madison Biotechnology Center (UWBC).
(§3) High-throughput sequencing and data analysis. High-throughput sequencing was performed by UWBC using a shared sequencing service on the NovaSeq 6000 platform. Sequencing reads were demultiplexed by UWBC and analyzed using custom-written Python scripts.

[2] = molecular target: hIAPP-T7n (UniProt P00573+P10997); settings: positive selection on hIAPP, high-throughput sequencing; for Rank (positive selection): top enriched sequences
Sequence of hIAPP-T7n (P10997+P00573 fused): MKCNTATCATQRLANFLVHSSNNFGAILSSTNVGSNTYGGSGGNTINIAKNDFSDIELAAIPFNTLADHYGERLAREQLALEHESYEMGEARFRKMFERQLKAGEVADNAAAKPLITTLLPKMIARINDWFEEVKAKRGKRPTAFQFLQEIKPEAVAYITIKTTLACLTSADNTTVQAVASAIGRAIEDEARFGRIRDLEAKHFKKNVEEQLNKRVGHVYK
Text: Next, we examined if our system could discover inhibitors of other disease-associated APPs. We targeted human islet amyloid polypeptide (hIAPP), which forms amyloid deposits in patients with type-2 diabetes that are hypothesized to contribute to […] dysfunction.^40 To create a selection for hIAPP aggregation inhibitors, we simply cloned hIAPP in place of Aβ42 in our selection circuit (FIG. 2B). We used an SP-encoded CZ6 SICLOPPS library (Z=NDT codon encoded amino acid: R, N, D, C, G, H, I, L, F, S, Y, or V) (˜3×10^6 total sequences). This codon set was chosen to reduce the theoretical library size and facilitate library cloning. The library (total of ˜5×10^6 transformants) was cloned on a SP obtained from an additional 250 hours of PACE using a more stringent selection (FIGS. 10A-10D).
We performed five rounds of selection, diluting the SP pool by ten-fold each round (FIG. 4A). […] To verify that we selected phage with higher activity, we measured the propagation of the SP from each round on hIAPP selection cells, normalizing input phage titers to […] to enable head-to-head comparison between phage pools.
as §1, §2, §3

[3] = molecular target: T1, Aβ42-T7n; settings: cyclo-CX6 library, seven rounds on Aβ42-T7n, deep sequencing
Method: as §1
Sample preparation. Phage stocks collected from the final rounds of library selection were first amplified using LY0145 and LY0146. The PCR product was purified, and adapters added using LY0147 and LY0148. […] The final PCR product was purified, and the concentration measured by Nanodrop. […]
High-throughput sequencing and data analysis. […] Sequencing reads were demultiplexed by UWBC and analyzed using custom-written Python scripts.

[4] = system: Aβ42-GFP; experiment: Aβ42-GFP folding reporter fluorescence assay; type: cell-based, E. coli; settings: expressed from plasmid, 0.04 mM IPTG, compared with CKVWQLL (FIG. 3H)
Sequence of Aβ42-GFP (P05067 672-713): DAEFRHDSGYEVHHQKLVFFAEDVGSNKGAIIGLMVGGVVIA
Method: Single colonies of S2060s transformed with pBL066c and SICLOPPS plasmid were used to make overnight cultures in 2×YT with maintenance antibiotics. The overnight culture was diluted (1:100) into 1 mL DRM on a 96 deep-well plate (VWR, 75870-796) with maintenance antibiotics and IPTG (0, 0.04, 0.2, or 1 mM). The diluted culture was incubated at 37° C. with shaking for 2.5 h, after which aTc (200 ng/mL) was added. 100 μL of the culture was transferred onto a black clear-bottom 96-well plate (VWR, 89131-680) to measure fluorescence signal 2, 3, 5 h after addition of aTc. GFP fluorescence signal (excitation wavelength=485 nm, emission wavelength=535 nm) was then measured using a Tecan M Plex microplate reader.

[5] = molecular target: T1, Aβ42-T7n
Text: Therefore, we turned to a split-T7 RNA polymerase (T7 RNAP) reporter used to evolve proteins with improved soluble expression.^33 In our new selection, host E. coli express an aggregation-prone protein (APP) fused to the N-terminal half of split-T7 RNAP (T7n). When the APP-T7n fusion is translated, it misfolds due to the APP, preventing T7n from associating with the C-terminal half of split-T7 RNAP (T7c; FIG. 2A). If a SP-encoded inhibitor binds to and prevents APP aggregation, the fused T7n will remain folded and join with T7c to produce full-length T7 RNAP. The reconstituted T7 RNAP then transcribes gIII, which we place under control of the T7 promoter (PT7), producing pill and allowing the SP to reproduce (FIGS. 2A and 2B).
We used the SICLOPPS method to biosynthesize cyclic peptides that can be selected in E. coli.^15 In SICLOPPS, a precursor fusion consisting of the C-terminal half of the Ssp DnaE split intein, the peptide sequence to be cyclized, and the N-terminal half of the same split intein undergoes intein splicing after translation to produce head-to-tail cyclized peptides (FIG. 7).
Strain S206035 was used for plasmid cloning, amplification, and phage assays. Strain S220835 was used for SP cloning and plaque assays. Plasmids and SPs were cloned by USER assembly or blunt-end ligation. Competent cells were prepared and transformed using the TSS method. Phage propagation and plaque assays were performed as previously described.^54 Unless otherwise noted, phage propagation assays used an input of […] phage to infect a 2 mL culture of host cells.

[6] = molecular target: T2, hIAPP (Homo sapiens, UniProt P10997); experiment: ThT fluorescence assay of in vitro hIAPP aggregation; type: biochemical; settings: chemically synthesized peptide, 10 μM hIAPP, PBS pH 6.9, 32° C., quiescent
T2 construct: A 1 mg portion of amylin trifluoroacetate salt (Bachem) was purchased as lyophilized solid in a vial; purchased Bachem
T2 sequence (P10997 34-70 limits assumed): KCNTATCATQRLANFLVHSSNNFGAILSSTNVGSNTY
Method: Preparation of ThT stock solution. To prepare a stock solution of ThT (2-3 mM), 2-4 mg of ThT was added to 3 mL PBS (pH 6.9) in a 15 mL conical tube. The solution was sonicated for 5 min and the supernatant was filtered through a 0.22 μm syringe filter into a 1.5 mL Eppendorf tube. This was the ThT stock solution to be used in following experiments. 2 mL of a 1:200 diluted ThT solution was prepared by adding 10 μL ThT stock solution into 1990 μL PBS. The absorbance of the diluted ThT solution measured at 412 nm was used to calculate the ThT stock concentration using an extinction coefficient (c) of 31600 M^−1 cm^−1.
Preparation of hIAPP stocks. A 1 mg portion of amylin trifluoroacetate salt (Bachem) was purchased as lyophilized solid in a vial. The solid was dissolved in pre-chilled 2562 μL 35 mM sodium acetate (pH 5.3) to a stock concentration of 100 μM on ice. Aliquots of hIAPP were prepared by transferring 200 μL of the 100 μM hIAPP stock solution to low-protein-binding Eppendorf tubes on ice. The aliquots were then immediately snap frozen using liquid N2, lyophilized for 24 h, and stored at −80° C. until use.
Preparation of samples for ThT assays. Using cyclic peptide stock solution (100 μM) and PBS, 400 μL aqueous solution of cyclic peptide was prepared in a low-protein-binding Eppendorf tube to achieve the desired cyclic peptide:hIAPP molar ratio (80 μM for 4:1, 40 μM for 2:1, 20 μM for 1:1, 10 μM for 0.5:1, 0 μM for 0:1). 30 μL of the solution was then loaded to wells on a black clear-bottom low-binding 96-well plate (Corning 3881) to make a triplicate for each condition. This plate loaded with aqueous solutions of cyclic peptides was then ready for adding hIAPP.
Preparation and addition of hIAPP for ThT assays. Using ThT stock solution and PBS, 1 mL ThT solution (10 μM) was prepared in a low-protein-binding Eppendorf tube and chilled on ice. 0.5 mL of the pre-chilled ThT solution was added to one aliquot of lyophilized hIAPP, which was equilibrated to room temperature before opening the tube. Pipetting up and down four times was performed to facilitate complete dissolving of hIAPP. The 0.5 mL hIAPP-containing solution was immediately transferred to the remaining 0.5 mL ThT solution on ice. Pipetting up and down four times was performed to facilitate complete mixing. The resulting 1 mL hIAPP solution, where [hIAPP]=20 μM, was immediately transferred to a 25 mL liquid reservoir. Using a multi-channel pipette, 30 μL of the hIAPP solution was quickly loaded into wells containing aqueous solutions of cyclic peptides on the 96-well plate. Final [hIAPP]=10 μM, [ThT]=5 μM.
ThT assay conditions. The plate was then quickly covered and incubated in a Tecan M Plex microplate reader under quiescent condition at 32° C. for at least 12 h. ThT fluorescence at 480 nm was measured every 5 min through the bottom of the plate using an excitation wavelength of 440 nm.
Fitting of aggregation kinetics. ThT aggregation kinetics data was fit to a sigmoidal function using GraphPad Prism and the aggregation lag time (tlag) and the apparent fibril elongation rate (kapp) calculated as described.^55

inhibition of hIAPP aggregation (ThT fluorescence) [6] | Substance | Fold enrichment in negative vs. positive selection [1] | Percent total reads (negative selection) [1] | Rank (negative selection) [1] | Percent total reads (positive selection) [2] | Rank (positive selection) [2] | share of total sequencing reads in final SP pool [3] | activity in Aβ42-GFP folding reporter assay [4] | phage propagation activity (fitness) on Aβ42-T7n selection ([5]; clonal SP encoding the sequence) | discrimination between active SP and scrambled control (phage propagation) ([5]; evolved SP (PACE 1 clone 2) (FIG. 2D)) | increase in phage proliferation compared to SP carrying scrambled control ([5]; parent SP, vs CVQWLKL SP (FIG. 8A))
 | CCGLYNI | 0.48 | 0.15% | 31 | 0.31% | 5 |  |  |  |  | 
 | CCHSFFR | 2.87 | 0.83% | 12 | 0.29% | 6 |  |  |  |  | 
 | CFFRGSD | 81.53 | 4.73% | 6 | 0.06% | 18 |  |  |  |  | 
 | CFNLVVD | 64.65 | 4.85% | 5 | 0.08% | 15 |  |  |  |  | 
 | CGIRSLG | 20.09 | 4.48% | 7 | 0.22% | 7 |  |  |  |  | 
 | CGLGHGN | 124.22 | 1.12% | 10 | 0.009% | 53 |  |  |  |  | 
 | CHVHSYL | 3.31 | 6.03% | 4 | 1.82% | 2 |  |  |  |  | 
 | CISCHYG | 0.92 | 0.12% | 34 | 0.13% | 8 |  |  |  |  | 
 | CIYFHHH | 28.44 | 3.33% | 8 | 0.12% | 9 |  |  |  |  | 
 | CLNYFHG | 20.08 | 7.05% | 3 | 0.35% | 3 |  |  |  |  | 
 | CNRLDVS | 83.68 | 1.84% | 9 | 0.02% | 26 |  |  |  |  | 
 | CRVWCAR (cyclic; Circular) [cyclo-CRVWCAR] |  |  |  |  |  | ~65% | comparable activity to CKVWQLL | robust propagation |  | 
 | CVSYILL | 4.21 | 0.45% | 16 | 0.11% | 10 |  |  |  |  | 
 | CYILSIG | 1.10 | 0.37% | 18 | 0.34% | 4 |  |  |  |  | 
 | cyclo-CKVWQLL [CKVWQLL SP, reference compound] |  |  |  |  |  |  |  |  | ~300 fold | ~500 fold
completely inactive | linear CDLGVFR |  |  |  |  |  |  |  |  |  | 
greatly reduced ability to inhibit hIAPP | linear CHVVGVI [linear CHWGVI] |  |  |  |  |  |  |  |  |  | 
moderately inhibited hNAPP aggregation | linear CRCVFSG [linear CRCVSFG] |  |  |  |  |  |  |  |  |  | 
